Reference: ChEMBL document CHEMBL1201862, “PubChem BioAssay data set” (2004)
Active and inactive are the calls of the source.

Legend:
[1] = target: NACHT, LRR and PYD domains-containing protein 3 (Homo sapiens, UniProt Q96P20); test: NALP3 inhibitors in yeast, dose response, luminescent (AID 488799); format: functional
[2] = mammalian cell cytotoxicity, dose response, cytotoxicity control, plate reader, cherry-pick samples (AID 504397); format: functional, cell-based
[3] = NIH-3T3 fibroblast cytotoxicity, dose response, cytotoxicity control, cell-based, fluorescence, Alamar Blue, secondary assay (AID 2327); format: functional;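 note: NIH-3T3 mouse fibroblasts cultured with fluconazole at 8 µg/mL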
[4] = C. albicans growth with fluconazole, confirmation, fluorescence, retest (AID 2467); format: functional, cell-based
[5] = inhibitors of intracellular T. cruzi replication, confirmation, NIH3T3 host cells, beta-gal luminescence (AID 2044); format: functional, cell-based;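 note: intracellular parasites grown in NIH/3T3 mouse fibroblasts as host cells; luminescent beta-galactosidase reporter signal from transgenic T. cruzi replicating inside host cells; inhibitors lower the luminescence signal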
[6] = microbe, parasite or virus in culture; format: functional; conditions: Mycobacterium tuberculosis
[7] = cytotoxicity toward NIH3T3 fibroblasts, dose response, counter-screen, cell-based, ATP luminescence, mouse fibroblasts (AID 2010); format: functional;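 note: cells exposed to compound for about 90 hours before reading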
[8] = Luminescence Cell-Based Dose Retest to Confirm Inhibitors of Cancer Stem Cells. [Related pubchem assays (depositor defined):AID2717, AID2721]; format: functional; conditions: Homo sapiens
[9] = target: T1, Ubiquitin-conjugating enzyme E2 N (Homo sapiens, UniProt P61088); format: functional;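 note: Dose-response confirmation in a TR-FRET assay detecting UBC13-driven polyubiquitin chain formation, inhibition measured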
T1 sequence (P61088 whole entry): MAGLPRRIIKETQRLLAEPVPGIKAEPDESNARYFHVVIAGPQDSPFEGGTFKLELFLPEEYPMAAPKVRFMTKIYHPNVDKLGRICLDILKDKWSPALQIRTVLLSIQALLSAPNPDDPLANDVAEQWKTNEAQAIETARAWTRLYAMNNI

[10] = target: Neurotensin receptor type 1 (Homo sapiens, UniProt P30989); format: functional;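 note: Image-based confirmatory dose-response assay measuring agonist activity at NTR1; NTR1-expressing U2OS osteosarcoma cells imaged for beta-arrestin GFP spot formation; agonist potency where compounds increase beta-arrestin recruitment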
INS1 = test: beta cell apoptosis inhibitors, cytokine rescue, dose response, luminescence, retest (AID 449756); format: functional, cell-based; conditions: Rattus norvegicus;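 note: cell death triggered by IL-1 beta plus TNF-alpha plus IFN-gamma mixture; protective hits raise ATP signal compared with cytokine alone wells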
[11] = THP-1 cell cytotoxicity, dose response, cytotoxicity control for non-replicating M. tuberculosis project (AID 489025); format: functional
[12] = Vero E6 cell cytotoxicity, dose response, cytotoxicity control for non-replicating M. tuberculosis project, secondary assay (AID 492998); format: functional, VeroE6; conditions: Vero C1008
[13] = target: T2, Short transient receptor potential channel 4 (Mus musculus, UniProt Q9QUQ5); test: mouse TRPC4 channel activators, dose response, cell-based, HEK293 TRPC4/mu-opioid, Fluo-4 calcium (AID 434937); format: functional
T2 sequence (Q9QUQ5 whole entry): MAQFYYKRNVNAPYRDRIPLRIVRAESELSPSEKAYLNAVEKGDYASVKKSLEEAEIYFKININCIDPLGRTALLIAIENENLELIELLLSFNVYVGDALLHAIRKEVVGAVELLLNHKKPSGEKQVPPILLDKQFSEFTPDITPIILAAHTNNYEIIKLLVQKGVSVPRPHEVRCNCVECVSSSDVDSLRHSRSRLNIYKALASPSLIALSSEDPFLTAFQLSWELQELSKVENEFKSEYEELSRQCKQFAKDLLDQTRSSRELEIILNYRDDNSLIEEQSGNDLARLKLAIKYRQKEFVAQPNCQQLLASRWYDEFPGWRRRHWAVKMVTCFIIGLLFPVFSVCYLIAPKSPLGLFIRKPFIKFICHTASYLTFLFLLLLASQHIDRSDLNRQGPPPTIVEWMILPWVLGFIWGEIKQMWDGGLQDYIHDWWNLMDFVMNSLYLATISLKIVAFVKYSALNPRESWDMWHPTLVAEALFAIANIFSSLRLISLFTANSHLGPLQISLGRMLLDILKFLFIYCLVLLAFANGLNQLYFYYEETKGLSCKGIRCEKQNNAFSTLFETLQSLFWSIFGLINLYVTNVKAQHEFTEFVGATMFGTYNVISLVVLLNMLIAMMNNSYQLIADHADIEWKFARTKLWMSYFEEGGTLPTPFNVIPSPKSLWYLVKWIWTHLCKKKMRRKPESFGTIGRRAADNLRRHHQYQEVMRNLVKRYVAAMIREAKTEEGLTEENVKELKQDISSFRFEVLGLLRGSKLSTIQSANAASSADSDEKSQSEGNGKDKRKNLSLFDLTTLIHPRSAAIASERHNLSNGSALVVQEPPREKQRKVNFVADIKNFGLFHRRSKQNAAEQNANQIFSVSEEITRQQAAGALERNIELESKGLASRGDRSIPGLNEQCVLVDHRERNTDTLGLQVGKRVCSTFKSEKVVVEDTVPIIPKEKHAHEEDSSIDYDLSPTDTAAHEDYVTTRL

cells = format: functional
Vero [14] = test: cells; format: functional, cell-based; conditions: Chlorocebus sabaeus
Vero [15] = test: cells; format: functional; conditions: Chlorocebus sabaeus
[16] = target: T3, G-protein coupled receptor 35 (Homo sapiens, UniProt Q9HC97); test: SAR analysis of Agonists of the GPR35 Receptor using an Image-Based Assay - Set 4. [Related pubchem assays (depositor defined):AID2013, AID2026]; format: functional
Cannabinoid receptor 1 [17] = target: T4, Cannabinoid receptor 1 (Homo sapiens, UniProt P21554); test: SAR analysis of agonists of the Cannabinoid Receptor 1 using an Image-Based Assay - Set 4. [Related pubchem assays (depositor defined):AID2013, AID2026]; format: functional
[18] = target: T3, G-protein coupled receptor 35; test: SAR analysis of Antagonists of the GPR35 Receptor using an Image-Based Assay - Set 6. [Related pubchem assays (depositor defined):AID2013, AID2026]; format: functional
Cannabinoid receptor 1 [19] = target: T4, Cannabinoid receptor 1; test: SAR analysis of antagonists of the Cannabinoid Receptor 1 using an Image-Based Assay - Set 4. [Related pubchem assays (depositor defined):AID2013, AID2026]; format: functional
[20] = target: G-protein coupled receptor 55 (Homo sapiens, UniProt Q9Y2T6); test: SAR Analysis of Selective Antagonists of GPR55 using an Image-Based Assay - Set 4. [Related pubchem assays (depositor defined):AID2013, AID2026]; format: functional;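 note: antagonism of response to 5 µM lysophosphatidylinositol agonist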
Cannabinoid receptor 2 [21] = target: T5, Cannabinoid receptor 2 (Homo sapiens, UniProt P34972); test: SAR analysis of antagonists of the Cannabinoid Receptor 2 using an Image-Based Assay - Set 3. [Related pubchem assays (depositor defined):AID2013, AID2026]; format: functional
Cannabinoid receptor 2 [22] = target: T5, Cannabinoid receptor 2; test: SAR analysis of agonists of the Cannabinoid Receptor 2 using an Image-Based Assay - Set 3. [Related pubchem assays (depositor defined):AID2013, AID2026]; format: functional
[23] = target: Alkaline phosphatase, placental type (Homo sapiens, UniProt P05187); test: PLAP enzyme inhibitors, confirmation, biochemical, luminescence (AID 1512); format: functional
[24] = target: T6, Alkaline phosphatase, tissue-nonspecific isozyme (Homo sapiens, UniProt P05186); test: human TNAP enzyme inhibitors, SAR follow-up, biochemical, luminescent, dose response (AID 1056)
T6 sequence (P05186 whole entry): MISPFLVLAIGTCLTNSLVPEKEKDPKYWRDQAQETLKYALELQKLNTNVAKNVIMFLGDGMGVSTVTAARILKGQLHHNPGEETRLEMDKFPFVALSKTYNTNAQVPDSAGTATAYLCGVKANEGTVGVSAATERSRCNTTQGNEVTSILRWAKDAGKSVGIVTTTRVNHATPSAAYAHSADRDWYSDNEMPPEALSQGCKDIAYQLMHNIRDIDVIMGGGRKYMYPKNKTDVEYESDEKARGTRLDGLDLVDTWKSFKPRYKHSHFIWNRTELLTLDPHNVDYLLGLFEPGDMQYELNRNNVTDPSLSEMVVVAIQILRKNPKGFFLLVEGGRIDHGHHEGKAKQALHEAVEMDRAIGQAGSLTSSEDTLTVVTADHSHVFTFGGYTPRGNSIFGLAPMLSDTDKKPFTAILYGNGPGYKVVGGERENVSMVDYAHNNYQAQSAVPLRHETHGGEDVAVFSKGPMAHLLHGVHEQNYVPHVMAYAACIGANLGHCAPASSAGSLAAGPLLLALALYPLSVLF

CAAX prenyl protease 2 = CAAX prenyl protease 2 (Saccharomyces cerevisiae S288c, UniProt Q03530); format: biochemical
Sequence of CAAX prenyl protease 2 (Q03530 whole entry): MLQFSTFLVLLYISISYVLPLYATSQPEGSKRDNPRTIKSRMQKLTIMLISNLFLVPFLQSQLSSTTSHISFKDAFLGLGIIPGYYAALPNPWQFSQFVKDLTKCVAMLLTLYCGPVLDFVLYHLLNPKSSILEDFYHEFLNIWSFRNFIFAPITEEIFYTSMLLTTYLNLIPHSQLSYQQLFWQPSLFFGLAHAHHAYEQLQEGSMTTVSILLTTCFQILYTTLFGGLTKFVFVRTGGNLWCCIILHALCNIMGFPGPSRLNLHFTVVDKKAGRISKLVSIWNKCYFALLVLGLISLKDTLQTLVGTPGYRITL

T4 sequence (P21554 whole entry): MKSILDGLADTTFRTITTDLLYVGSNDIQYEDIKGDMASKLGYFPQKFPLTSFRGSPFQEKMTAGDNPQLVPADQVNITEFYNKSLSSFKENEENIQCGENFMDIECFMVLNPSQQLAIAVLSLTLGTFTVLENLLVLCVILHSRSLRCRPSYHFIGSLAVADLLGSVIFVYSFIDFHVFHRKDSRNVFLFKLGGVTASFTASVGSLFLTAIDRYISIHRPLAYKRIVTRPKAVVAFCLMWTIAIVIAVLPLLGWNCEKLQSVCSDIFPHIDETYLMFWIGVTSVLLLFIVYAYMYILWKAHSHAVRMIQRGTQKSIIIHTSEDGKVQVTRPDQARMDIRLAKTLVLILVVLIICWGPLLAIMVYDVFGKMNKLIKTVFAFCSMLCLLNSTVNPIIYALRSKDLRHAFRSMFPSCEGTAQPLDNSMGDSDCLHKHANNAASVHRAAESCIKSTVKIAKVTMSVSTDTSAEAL
T5 sequence (P34972 whole entry): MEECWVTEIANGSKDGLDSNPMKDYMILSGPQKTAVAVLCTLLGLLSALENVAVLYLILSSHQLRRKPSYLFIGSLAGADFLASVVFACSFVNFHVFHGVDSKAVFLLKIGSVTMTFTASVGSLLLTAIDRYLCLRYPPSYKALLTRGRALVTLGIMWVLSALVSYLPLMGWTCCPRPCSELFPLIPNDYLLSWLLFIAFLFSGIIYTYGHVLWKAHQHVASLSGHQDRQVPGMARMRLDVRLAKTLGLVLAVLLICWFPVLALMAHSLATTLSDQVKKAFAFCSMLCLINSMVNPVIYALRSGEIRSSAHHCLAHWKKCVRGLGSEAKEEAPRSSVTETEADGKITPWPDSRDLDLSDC
T3 sequence (Q9HC97 whole entry): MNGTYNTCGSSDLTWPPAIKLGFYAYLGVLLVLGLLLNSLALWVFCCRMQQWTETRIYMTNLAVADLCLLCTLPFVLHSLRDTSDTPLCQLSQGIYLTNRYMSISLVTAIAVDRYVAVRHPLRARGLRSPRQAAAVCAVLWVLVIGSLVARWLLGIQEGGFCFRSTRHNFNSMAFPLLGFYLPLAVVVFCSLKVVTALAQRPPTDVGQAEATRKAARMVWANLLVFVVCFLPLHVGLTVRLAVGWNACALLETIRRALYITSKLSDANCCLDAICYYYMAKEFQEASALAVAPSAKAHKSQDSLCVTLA
Sequence of NACHT, LRR and PYD domains-containing protein 3 (Q96P20 whole entry, the tested form may be a part): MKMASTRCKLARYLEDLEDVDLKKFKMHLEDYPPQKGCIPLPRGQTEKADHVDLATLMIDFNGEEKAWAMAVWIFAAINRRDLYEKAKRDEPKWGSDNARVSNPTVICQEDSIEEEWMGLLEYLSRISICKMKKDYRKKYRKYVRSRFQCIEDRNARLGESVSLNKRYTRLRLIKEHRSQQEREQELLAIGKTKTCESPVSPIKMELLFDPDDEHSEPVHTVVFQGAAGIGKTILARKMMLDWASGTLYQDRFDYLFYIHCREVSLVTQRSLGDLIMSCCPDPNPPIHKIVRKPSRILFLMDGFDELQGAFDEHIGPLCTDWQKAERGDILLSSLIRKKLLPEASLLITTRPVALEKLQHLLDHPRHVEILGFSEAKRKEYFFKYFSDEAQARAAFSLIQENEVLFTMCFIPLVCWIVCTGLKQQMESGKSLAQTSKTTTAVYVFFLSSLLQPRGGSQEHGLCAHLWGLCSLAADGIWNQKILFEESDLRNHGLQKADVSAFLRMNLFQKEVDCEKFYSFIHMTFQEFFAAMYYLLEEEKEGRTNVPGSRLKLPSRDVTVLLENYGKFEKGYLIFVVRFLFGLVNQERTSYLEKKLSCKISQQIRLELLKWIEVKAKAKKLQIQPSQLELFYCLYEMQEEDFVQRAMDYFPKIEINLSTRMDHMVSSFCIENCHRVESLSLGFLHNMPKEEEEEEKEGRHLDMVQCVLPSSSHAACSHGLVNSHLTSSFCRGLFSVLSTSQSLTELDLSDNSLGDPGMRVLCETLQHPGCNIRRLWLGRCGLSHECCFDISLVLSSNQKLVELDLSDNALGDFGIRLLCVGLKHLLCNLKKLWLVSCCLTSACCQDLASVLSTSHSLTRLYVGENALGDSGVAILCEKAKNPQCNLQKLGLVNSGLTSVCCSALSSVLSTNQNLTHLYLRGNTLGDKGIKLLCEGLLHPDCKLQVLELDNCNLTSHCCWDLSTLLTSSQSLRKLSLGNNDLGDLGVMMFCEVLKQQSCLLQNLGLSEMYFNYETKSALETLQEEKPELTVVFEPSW
Sequence of G-protein coupled receptor 55 (Q9Y2T6 whole entry): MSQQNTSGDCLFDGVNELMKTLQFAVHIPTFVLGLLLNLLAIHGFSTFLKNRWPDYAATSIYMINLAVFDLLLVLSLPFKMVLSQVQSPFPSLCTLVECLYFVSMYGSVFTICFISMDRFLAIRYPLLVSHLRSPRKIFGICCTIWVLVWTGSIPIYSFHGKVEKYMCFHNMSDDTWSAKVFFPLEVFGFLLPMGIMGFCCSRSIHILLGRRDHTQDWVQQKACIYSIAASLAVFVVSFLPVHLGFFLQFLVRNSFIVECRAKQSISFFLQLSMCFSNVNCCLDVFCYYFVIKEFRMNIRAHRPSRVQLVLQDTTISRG
Sequence of Neurotensin receptor type 1 (P30989 whole entry): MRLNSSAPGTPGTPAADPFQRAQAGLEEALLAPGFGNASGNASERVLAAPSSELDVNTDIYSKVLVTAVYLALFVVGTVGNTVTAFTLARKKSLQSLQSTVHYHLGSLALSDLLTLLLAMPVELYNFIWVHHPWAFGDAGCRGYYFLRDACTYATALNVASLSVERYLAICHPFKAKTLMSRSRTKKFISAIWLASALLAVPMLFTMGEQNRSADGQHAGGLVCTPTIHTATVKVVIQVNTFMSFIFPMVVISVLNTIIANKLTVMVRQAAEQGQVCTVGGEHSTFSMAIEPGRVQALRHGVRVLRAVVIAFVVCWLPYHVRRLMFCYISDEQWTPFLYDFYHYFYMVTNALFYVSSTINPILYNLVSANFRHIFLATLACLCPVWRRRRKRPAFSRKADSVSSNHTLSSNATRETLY
Sequence of Alkaline phosphatase, placental type (P05187 whole entry): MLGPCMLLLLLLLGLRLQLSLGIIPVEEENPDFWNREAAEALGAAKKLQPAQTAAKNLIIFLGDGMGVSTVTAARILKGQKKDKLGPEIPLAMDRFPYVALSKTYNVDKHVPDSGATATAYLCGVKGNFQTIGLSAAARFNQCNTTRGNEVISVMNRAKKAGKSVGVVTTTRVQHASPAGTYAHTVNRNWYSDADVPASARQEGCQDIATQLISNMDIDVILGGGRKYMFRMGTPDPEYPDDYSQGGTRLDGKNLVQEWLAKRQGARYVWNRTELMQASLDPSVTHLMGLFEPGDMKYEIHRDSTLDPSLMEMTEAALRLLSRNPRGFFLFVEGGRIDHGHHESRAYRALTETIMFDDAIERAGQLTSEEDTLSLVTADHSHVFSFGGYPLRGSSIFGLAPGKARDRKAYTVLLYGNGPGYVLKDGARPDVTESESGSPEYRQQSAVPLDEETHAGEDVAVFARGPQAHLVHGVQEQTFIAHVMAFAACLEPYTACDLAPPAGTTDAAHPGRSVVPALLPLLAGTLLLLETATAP

CCOC(=O)c1ccc2c(c1)nc(COc1ccc(OC)cc1)n2CC
IC50 [1]: > 100 µM (inactive)

Cc1cc(C)cc(Nc2nc(-c3ccc(S(=O)(=O)N4CCCC4)cc3)cs2)c1
AC50 [2]: > 350 µM (inactive)

Cc1cccc(OCc2n(C)c3ccccc3[n+]2CC(=O)OC2CC(C)CCC2C(C)C)c1 (configuration not stated)
EC50 [3]: 11.2 µM (inconclusive)
EC50 [4]: 0.736 µM (active)
EC50 [5]: 0.565 µM (active)
CC50 [6]: 18.8 µM (active)
EC50 [7]: > 60 µM (not active)
AC50 [8]: 3.49 µM (active)
IC50 [9]: > 20 µM (inactive)
EC50 [10]: 8.85 µM (active)
AC50 (INS1): 3.61 µM (active)

CCCOc1ccc(C(=O)NNC(=S)NC(=O)c2cccs2)cc1
EC50 [3]: 18.5 µM (active)
EC50 [4]: 0.391 µM (active)
IC50 [1]: 8.96 µM (active)
CC50 [11]: 5.22 µM (active)
CC50 [12]: 6.29 µM (active)
EC50 [13]: 3.76 µM (active)
IC50 (cells): 0.5 µM (active)
IC50 (Vero [14]): > 25 µM (active)
CC50 (Vero [15]): 15.6 µM (active)

O=C(N1CCC(n2nc(-c3ccccc3)oc2=O)CC1)C1(c2ccccc2)CC1
EC50 [16]: > 32 µM (inactive)
EC50 (Cannabinoid receptor 1 [17]): > 32 µM (inactive)
IC50 [18]: > 32 µM (inactive)
IC50 (Cannabinoid receptor 1 [19]): 8.64 µM (active)
IC50 [20]: 17.4 µM (inactive)
IC50 (Cannabinoid receptor 2 [21]): > 32 µM (inactive)
EC50 (Cannabinoid receptor 2 [22]): > 32 µM (inactive)

CCN(CC)c1ccc(C(=O)CSc2nc(C)cc(C)n2)cc1
IC50 [23]: > 100 µM (inactive)
IC50 [24]: > 100 µM (inactive)

Cc1ccc(-c2nnc(C)c3nn(-c4ccccc4)cc23)cc1
EC50 [16]: > 32 µM (inactive)
EC50 (Cannabinoid receptor 1 [17]): > 32 µM (inactive)
IC50 [18]: > 32 µM (inactive)
IC50 (Cannabinoid receptor 1 [19]): 4.61 µM (active)
IC50 [20]: > 32 µM (inactive)
IC50 (Cannabinoid receptor 2 [21]): > 32 µM (inactive)
EC50 (Cannabinoid receptor 2 [22]): > 32 µM (inactive)

O=C(O)CNc1ccccc1C(=O)O
AC50 (CAAX prenyl protease 2): 11.3 µM (active)
